Paper PMC11106165, “Repurposing the KCa3.1 Blocker Senicapoc for Ischemic Stroke” (Translational Stroke Research, 2023)

Columns and labels:
[1] = design: method as in PMID 22675649; conditions: cited from earlier work
human tPA = biological target: T1, human tPA (Homo sapiens, UniProt P00750); experiment: Chromogenic tPA activity assay; format: biochemical; conditions: 30-min assay
T1 construct: purchased Abcam ab108905
Excerpt: The commercially available tPA Activity Assay Kit (Abcam, ab108905) was used to assess whether senicapoc and TRAM-34 affect the ability of human tPA to cleave its substrate plasminogen similar to protocols published by Lapchak and Boitano [38] and Lapchak et al.. Reactions were run in optically clear flat-bottom 96-well plates (Corning, Catalog #3904). Human plasminogen activator inhibitor-1 (PAI-1; Sigma-Aldrich CC4075) was used as a positive control. Human plasminogen, the chromogenic plasmin substrate, and human tPA were included in the tPA Activity Assay Kit. […] The reactions were pre-incubated at 37 °C for 5 min prior to the addition of the chromogenic plasmin substrate and subsequently placed in a heated SpectraMax M5 spectrophotometer. Absorbances at 405 nm were measured every 30 s for 30 min.

rats or mice, tMCAO = system: rats or mice, tMCAO; design: method as in PMID 21750563, PMID 26661208; conditions: cited from earlier work

T1 sequence (P00750 36-562): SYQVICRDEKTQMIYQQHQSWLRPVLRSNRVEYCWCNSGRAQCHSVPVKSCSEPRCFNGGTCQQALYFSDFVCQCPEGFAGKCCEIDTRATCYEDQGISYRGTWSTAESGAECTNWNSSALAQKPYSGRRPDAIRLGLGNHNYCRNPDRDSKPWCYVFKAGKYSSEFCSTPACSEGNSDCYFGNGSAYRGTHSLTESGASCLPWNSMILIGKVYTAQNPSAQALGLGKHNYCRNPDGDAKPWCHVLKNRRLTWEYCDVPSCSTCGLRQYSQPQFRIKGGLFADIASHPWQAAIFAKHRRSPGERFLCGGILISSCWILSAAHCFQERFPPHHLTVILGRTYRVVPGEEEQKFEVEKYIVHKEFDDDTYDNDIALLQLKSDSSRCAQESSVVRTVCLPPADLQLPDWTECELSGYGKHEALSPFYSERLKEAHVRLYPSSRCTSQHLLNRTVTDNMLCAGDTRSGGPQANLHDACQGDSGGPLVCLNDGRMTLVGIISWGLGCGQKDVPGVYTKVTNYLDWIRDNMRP

effect on tPA activity (absorbance at 405 nm) (human tPA; positive control)	Compound	metabolic stability [1]	oral availability [1]	half-life ([1]; rats and primates)	effect on tPA activity (absorbance at 405 nm) (human tPA; 0.5 μM and 5 μM, PBS with 10% human serum)	reduction in infarct area (rats or mice, tMCAO; MCAO, 11 animals per group)	infarct area (rats or mice, tMCAO; rats or mice, 8 days after tMCAO with reperfusion)
–	Clc1ccccc1C(c1ccccc1)(c1ccccc1)n1cccn1 [TRAM-34]	metabolic instability	not orally available	~ 2 h	do not interfere with tPA activity	~ 50%	significantly smaller infarct areas
strongly inhibited	plasminogen activator inhibitor-1 [PAI-1]	–	–	–	–	–	–
